Source: patent US8318749B2, “Quinazoline derivatives as NK3 receptor antagonists” (Hoffmann-La Roche Inc., priority 2008, dated 2012)

These compounds were tested against T1, recombinant human NK3 receptor (Homo sapiens, UniProt P29371) (assay: [3H]SR142801 competition binding assay). Conditions: membrane from HEK293 cells transiently expressing recombinant human NK3 receptor; radioligand [3H]SR142801; 75 min at RT.
T1 construct: expressed in transfected cells; host or cells: HEK293 cells (transient expression), membrane preparation
T1 sequence (P29371 1-465): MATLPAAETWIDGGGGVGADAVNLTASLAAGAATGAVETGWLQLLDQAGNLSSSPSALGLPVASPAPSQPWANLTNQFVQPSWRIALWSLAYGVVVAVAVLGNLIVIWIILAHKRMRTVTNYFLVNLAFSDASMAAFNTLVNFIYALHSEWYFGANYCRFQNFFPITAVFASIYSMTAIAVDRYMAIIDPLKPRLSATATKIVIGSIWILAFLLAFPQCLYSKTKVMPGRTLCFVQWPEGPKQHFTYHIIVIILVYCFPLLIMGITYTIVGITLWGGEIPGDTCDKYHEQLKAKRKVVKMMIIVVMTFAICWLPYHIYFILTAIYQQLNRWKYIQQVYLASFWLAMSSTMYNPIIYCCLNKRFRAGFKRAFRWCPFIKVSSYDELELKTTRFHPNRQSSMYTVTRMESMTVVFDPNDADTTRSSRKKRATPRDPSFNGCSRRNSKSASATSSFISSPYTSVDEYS
Description: [^3H]SR142801 Competition Binding Assay
hNK3 receptor binding experiment were performed using [^3H]SR142801 (Catalog No. TRK1035, specific activity: 74.0 Ci/mmol, Amersham, GE Healthcare UK limited, Buckinghamshire, UK) and membrane isolated from HEK293 cells transiently expressing recombinant human NK3 receptor. After thawing, the membrane homogenates were centrifuged at 48,000×g for 10 min at 4° C., the pellets were resuspended in the 50 mM Tris-HCl, 4 mM MnCl2, 1 μM phosphoramidon, 0.1% BSA binding buffer at pH 7.4 to a final assay concentration of 5 μg protein/well. […] At the end of the incubation, membranes were filtered onto unitfilter (96-well white microplate with bonded GF/C filter preincubated 1 h in 0.3% PEI+0.3% BSA, Packard BioScience, Meriden, Conn.) with a Filtermate 196 harvester (Packard BioScience) and washed 4 times with ice-cold 50 mM Tris-HCl, pH 7.4 buffer. Nonspecific binding was measured in the presence of 10 μM SB222200 for both radioligands. The radioactivity on the filter was counted (5 min) on a Packard Top-count microplate scintillation counter with quenching correction after addition of 45 μl of microscint 40 (Canberra Packard S.A., Zürich, Switzerland) and shaking for 1 h. Inhibition curves were fitted according to the Hill equation: y=100/(1+(x/IC50)^nH), where nH=slope factor using Excel-fit 4 software (Microsoft). IC50 values were derived from the inhibition curve and the affinity constant (Ki) values were calculated using the Cheng-Prussoff equation Ki=IC50/(1+[L]/KD) where [L] is the concentration of radioligand and KD is its dissociation constant at the receptor, derived from the saturation isotherm. All experiments were performed in duplicate and the mean±standard error (SEM) of the individual Ki values was calculated.
Compound `COc1cc2nc(N3CCC(Cc4ccccc4)(C(=O)NCc4cccnc4)CC3)nc(N)c2cc1OC` [Example 1, 1-(4-Amino-6,7-dimethoxy-quinazolin-2-yl)-4-benzyl-piperidine-4-carboxylic acid (pyridin-3-ylmethyl)-amide] has a Ki of 90.9 nM. `COc1cc2nc(N3CCC(Cc4ccccc4)(C(=O)NCc4cccnc4)CC3)nc(O)c2cc1OC` [Example 2, 4-Benzyl-1-(4-hydroxy-6,7-dimethoxy-quinazolin-2-yl)-piperidine-4-carboxylic acid (pyridin-3-ylmethyl)-amide] was tested, and the Ki was 66.1 nM. Work on `COc1cc2nc(N3CCC(Cc4ccc(F)cc4)(C(=O)NCc4ccccc4)CC3)nc(N)c2cc1OC` [Example 4, 1-(4-Amino-6,7-dimethoxy-quinazolin-2-yl)-4-(4-fluoro-benzyl)-piperidine-4-carboxylic acid benzylamide] yielded a Ki of 37.3 nM. Work on `COc1cc2nc(N3CCC(Cc4ccccc4)(C(=O)NCc4ccccc4)CC3)nc(N)c2cc1OC` [Example 10, l-(4-Amino-6,7-dimethoxy-quinazolin-2-yl)-4-benzyl-piperidine-4-carboxylic acid benzylamide] yielded a Ki of 18.3 nM. With `COc1cc2nc(N3CCC(Cc4ccccc4)(C(=O)NCc4ccccc4)CC3)nc(N(C)C)c2cc1OC` [Example 14, 4-Benzyl-1-(4-dimethylamino-6,7-dimethoxy-quinazolin-2-yl)-piperidine-4-carboxylic acid benzylamide] the Ki was 73.2 nM. `COc1cc2nc(N3CCC(Cc4ccccc4)(C(=O)NCc4ccccc4)CC3)nc(NC3CC3)c2cc1OC` [Example 15, 4-Benzyl-1-(4-cyclopropylamino-6,7-dimethoxy-quinazolin-2-yl)-piperidine-4-carboxylic acid benzylamide] showed a Ki of 69.3 nM. `O=C(NCc1ccccc1)C1(Cc2ccccc2)CCN(c2nc(O)c3cc(F)c(Cl)cc3n2)CC1` [Example 16, 4-Benzyl-1-(7-chloro-6-fluoro-4-hydroxy-quinazolin-2-yl)-piperidine-4-carboxylic acid benzylamide] showed a Ki of 34.7 nM. Work on `COc1cc2nc(N3CCC(Cc4ccccc4)(C(=O)NCc4ccccc4)CC3)nc(O)c2cc1OC` [Example 17, 4-Benzyl-1-(4-hydroxy-6,7-dimethoxy-quinazolin-2-yl)-piperdine-4-carboxylic acid benzylamide] yielded a Ki of 3.6 nM. `COc1cc2nc(N3CCC(Cc4ccccc4)(C(=O)NC4Cc5ccccc5C4)CC3)nc(N)c2cc1OC` [Example 19, 1-(4-Amino-6,7-dimethoxy-quinazolin-2-yl)-4-benzyl-piperidine-4-carboxylic acid indan-2-ylamie] showed a Ki of 27.8 nM. For `COc1cc2nc(N3CCC(Cc4ccccc4)(C(=O)NCc4ccc(OC(F)F)cc4)CC3)nc(N)c2cc1OC` [Example 20, 1-(4-Amino-6,7-dimethoxy-quinazolin-2-yl)-4-benzyl-piperidine-4-carboxylic acid 4-difluoromethoxy-benzylamide], the Ki was 46.3 nM. `COc1cc2nc(N3CCC(Cc4ccccc4)(C(=O)NC4CCCc5ccccc54)CC3)nc(N)c2cc1OC` (stereo not drawn) [Example 23, 1-(4-Amino-6,7-dimethoxy-quinazolin-2-yl)-4-benzyl-piperidine-4-carboxylic acid (1,2,3,4-tetrahydro-naphthalen-1-yl)-amide] was tested, and the Ki was 46.6 nM. `COc1cc2nc(N3CCC(Cc4ccccc4)(C(=O)NC(C)c4ccc(Cl)cc4)CC3)nc(N)c2cc1OC` (stereo not drawn) [Example 25, 1-(4-Amino-6,7-dimethoxy-quinazolin-2-yl)-4-benzyl-piperidine-4-carboxylic acid [1-(4-chloro-phenyl)-ethyl]-amide] was tested, and the Ki was 95.1 nM. Work on `COc1cc2nc(N3CCC(Cc4ccccc4)(C(=O)NCc4ccc(Cl)c(Cl)c4)CC3)nc(N)c2cc1OC` [Example 28, 1-(4-Amino-6,7-dimethoxy-quinazolin-2-yl)-4-benzyl-piperidine-4-carboxylic acid 3,4-dichloro-benzylamide] yielded a Ki of 52.4 nM. Work on `COc1cc2nc(N3CCC(Cc4ccccc4)(C(=O)NCc4ccc(N(C)C)cc4)CC3)nc(N)c2cc1OC` [Example 33, 1-(4-Amino-6,7-dimethoxy-quinazolin-2-yl)-4-benzyl-piperidine-4-carboxylic acid 4-dimethylamino-benzylamide] yielded a Ki of 17.2 nM. Compound `COc1cc2nc(N3CCC(Cc4ccccc4)(C(=O)NC4Cc5ccccc5C4O)CC3)nc(N)c2cc1OC` (stereo not drawn) [Example 38, 1-(4-Amino-6,7-dimethoxy-quinazolin-2-yl)-4-benzyl-piperidine-4-carboxylic acid (1-hydroxy-indan-2-yl)-amide] has a Ki of 7.5 nM. Compound `COc1cc2nc(N3CCC(Cc4ccccc4)(C(=O)N[C@H]4c5ccccc5C[C@@H]4O)CC3)nc(N)c2cc1OC` [Example 39, 1-(4-Amino-6,7-dimethoxy-quinazolin-2-yl)-4-benzyl-piperidine-4-carboxylic acid ((1S,2S)-2-hydroxy-indan-1-yl)-amide] has a Ki of 3.6 nM. Work on `COc1cc2nc(N3CCC(Cc4ccccc4)(C(=O)NC4CCc5ccccc5C4)CC3)nc(N)c2cc1OC` (stereo not drawn) [Example 40, 1-(4-Amino-6,7-dimethoxy-quinazolin-2-yl)-4-benzyl-piperidine-4-carboxylic acid (1,2,3,4-tetrahydro-naphthalen-2-yl)-amide] yielded a Ki of 10.1 nM. With `COc1cc2nc(N3CCC(Cc4ccccc4)(C(=O)NC(CO)c4ccccc4)CC3)nc(N)c2cc1OC` (stereo not drawn) [Example 41, 1-(4-Amino-6,7-dimethoxy-quinazolin-2-yl)-4-benzyl-piperidine-4-carboxylic acid (2-hydroxy-1-phenyl-ethyl)-amide] the Ki was 48.7 nM. Work on `COc1cc2nc(N3CCC(Cc4ccccc4)(C(=O)NC4CCc5ccccc54)CC3)nc(N)c2cc1OC` (stereo not drawn) [Example 44, 1-(4-Amino-6,7-dimethoxy-quinazolin-2-yl)-4-benzyl-piperidine-4-carboxylic acid indan-1-ylamide] yielded a Ki of 5.4 nM. With `COc1cc2nc(N3CCC(Cc4ccccc4)(C(=O)NCc4ccco4)CC3)nc(N)c2cc1OC` [Example 46, 1-(4-Amino-6,7-dimethoxy-quinazolin-2-yl)-4-benzyl-piperidine-4-carboxylic acid (furan-2-ylmethyl)-amide] the Ki was 43.8 nM. Compound `COc1cc2nc(N3CCC(Cc4ccccc4)(C(=O)N4CCCC4c4ccccc4)CC3)nc(N)c2cc1OC` (stereo not drawn) [Example 47, [1-(4-Amino-6,7-dimethoxy-quinazolin-2-yl)-4-benzyl-piperidin-4-yl]-(2-phenyl-pyrrolidin-1-yl)-methanone] has a Ki of 46.7 nM. Compound `COc1cc2nc(N3CCC(Cc4ccccc4)(C(=O)N[C@H](C)c4ccccc4)CC3)nc(N)c2cc1OC` [Example 49, 1-(4-Amino-6,7-dimethoxy-quinazolin-2-yl)-4-benzyl-piperidine-4-carboxylic acid ((R)-1-phenyl-ethyl)-amide] has a Ki of 20.6 nM. `CC[C@@H](NC(=O)C1(Cc2ccccc2)CCN(c2nc(N)c3cc(OC)c(OC)cc3n2)CC1)c1ccccc1` [Example 51, 1-(4-Amino-6,7-dimethoxy-quinazolin-2-yl)-4-benyzl-piperidine-4-carboxylic acid ((R)-1-phenyl-propyl)-amide] was tested, and the Ki was 16.6 nM. Compound `COc1cc2nc(N3CCC(Cc4ccccc4)(C(=O)NC4CCCC4)CC3)nc(O)c2cc1OC` [Example 53, 4-Benzyl-1-(4-hydroxy-6,7-dimethoxy-quinazolin-2-yl)-piperidine-4-carboxylic acid cyclopentylamide] has a Ki of 25.4 nM.
